Legend:
[1] = system: NF-κB p65 in LPS-stimulated RAW264.7 cells; test: NF-κB nuclear translocation, immunocytochemistry; assay type: cell-based, mouse; settings: pre-treatment 2 h prior to LPS 1 µg/mL for 16 h
Procedure: RAW264.7 cells cultured on round cover slips coated with poly-L-lysine were treated with triterpenoids (1 or 3 µg/mL) 2 h prior to LPS treatment, followed by LPS (1 µg/mL) for 16 h. The cells were washed with 1 x phosphate buffered saline (PBS) and fixed with 4% paraformaldehyde for 30 min. After washing the fixed cells with PBS, the cells were permeabilized with a blocking buffer (1% normal goat serum and 0.2% Triton X-100 in PBS) for 30 min at room temperature, and were incubated with an anti-NF-κB p65 antibody (1:200 dilution, Cell Signaling Technology, Danvers, MA, USA) at 4 °C overnight. After three washes in PBS, the cells were incubated in the dark for 1 h with the mixture of FITC-conjugated anti-rabbit IgG fluorescent secondary antibody diluted at 1:500 in PBS. Finally, the cells were stained with 2 µg/mL Hoechst for nuclei staining. The cells were washed with PBS, wet-mounted on glass slides, and observed using a confocal laser-scanning microscope (Olympus, Tokyo, Japan). The negative control (NC) was analyzed by omitting the primary antibody.

[2] = biological target: T1, Human neutrophil elastase (HNE) (Homo sapiens, UniProt P08246); test: Fluorescence quenching binding affinity to HNE; settings: inhibitor 7.8–31.2 µM
T1 construct: purchased Sigma-Aldrich
T1 sequence (P08246 30-267): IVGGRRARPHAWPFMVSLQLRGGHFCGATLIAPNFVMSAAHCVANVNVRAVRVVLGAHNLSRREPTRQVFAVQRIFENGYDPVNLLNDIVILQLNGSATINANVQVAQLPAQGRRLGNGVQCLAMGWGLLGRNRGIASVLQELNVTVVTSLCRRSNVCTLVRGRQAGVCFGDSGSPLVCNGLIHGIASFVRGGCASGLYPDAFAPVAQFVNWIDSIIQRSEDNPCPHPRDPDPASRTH
Procedure: To measure fluorescence from the HNE enzyme, 10 μL of 0.01 unit/mL enzyme solution with 180 μL of Tris-HCl buffer (0.02 mM) was accurately added into the 96-well black immunoplates. Then, 10 μL of incremental concentrations (7.8–31.2 μΜ) of inhibitors were added into each well. All fluorescence spectra were measured from 280 to 400 nm with emission slits regulated to 2.0 nm, and the excitation wavelength was 260 nm. The Stern–Volmer quenching constant (KSV) was calculated using Equation (5). All experiments were conducted in triplicate, and the mean values were calculated. (5) […]=1+KSV[Q], where F0 and F are the fluorescence intensities in the absence and presence of quencher (Q). KSV is the Stern–Volmer quenching constant [LM^−1]. For static quenching, the correlation between the fluorescence intensity and the concentration of quencher for the series of reactions can be estimated by Equation (6). (6) log[(F0−F)/F]=logKA+nlog[Q]f.
F0 and F are the fluorescence intensities in the absence and presence of inhibitor; KA is the binding constant; n is the number of binding sites of the enzyme; Qf is the concentration of inhibitor.

[3] = biological target: T2, Human neutrophil elastase (HNE, EC 3.4.21.37) (Homo sapiens, UniProt P08246); test: Human neutrophil elastase inhibition, spectrophotometric, MeOSuc-AAPV-pNA substrate; assay type: biochemical
T2 construct: purchased Sigma-Aldrich
T2 sequence (P08246 30-267): T1 sequence (P08246 30-267)
Procedure: Human neutrophil elastase (EC 3. 4. 21. 37) (Sigma-Aldrich, St. Louis, MO, USA) activity was measured in accordance with the previous description with subtle modification, by observing the formation of p-nitroaniline after the hydrolysis of N-methoxysuccinyl-Ala-Ala-Pro-Val-p-nitro anilide at 405 nm. The inhibitors were dissolved in dimethyl sulfoxide (DMSO) and diluted to a few concentrations. In brief, in a 96-well plate, 10 µL of inhibitor solution and 40 µL of 1.5 mM of MeOSuc-AAPV-pNA were added as a substrate in the 0.02 mM Tris-HCl buffer solutions (pH 8.0). Then, 20 µL of human neutrophil elastase (0.2 unit/mL) was added to the mixture. The test mixtures were incubated and mixed for 15 min at room temperature and then screened at 405 nm for 30 min every 30 s.
Activity (%) = 100 [1/(1 + ([I]/IC50))].(1)
The modalities of HNE inhibition were estimated in experiments using particular concentrations of the substrates and inhibitors, respectively. The Michaelis–Menten constant (Km) and maximal velocity (Vmax) were investigated by a Lineweaver–Burk plot. The KI, dissociation constants for inhibitor binding to the free enzyme were calculated using a Dixon plot. Equations (2)–(4) are representatives for deriving the aforementioned parameters. (2) 1/V=Km/Vmax(1+[I]/Ki)×1/S+1/Vmax (3) Slop=Km/KiVmax[I]+Km/Vmax (4) Intercept=1/KiVmax[I]+1/Vmax.

SMILES | NF-κB translocation to the nucleus (immunocytochemical staining) [1] | n (number of binding sites of the enzyme) [2] | Kd ([2]; read-out: KA (association constant of the complex of enzyme and quencher) (converted)) | KSV (Stern-Volmer quenching constant) ([2]; λEx 260 nm, λEm 280–400 nm) | Ki ([3]; Dixon plots, read-out: Ki (inhibition constant)) | Type of Inhibition ([3]; Lineweaver-Burk and Dixon plots, reversibility from activity vs enzyme concentration plots) | fold better HNE inhibition than monocyclic compounds (1 and 2) ([3]; compared with compounds 1 and 2) | IC50 ([3]; concentration that caused 50% enzyme activity loss, three sets of experiments)
CC(C)(C)c1ccc(S(=O)(=O)/C=C/C#N)cc1 [Bay 11-7085, reference compound] | suppressed |  |  |  |  |  |  | 
COC1OC(C=C(C)C=CC=C(C)CCC=C(C)C)CC12C(CCCO)C(=C(C)C=O)CCC2(C)O (centres unmarked) [Compound 3, iridobelamal B] |  | 0.9727 | 13.5 µM | 67640 L/mol | 6.2 µM | noncompetitive inhibitor | 2–3 fold | 6.8 ± 0.3 µM

Source: article PMC8588536, “Iridal-Type Triterpenoids Displaying Human Neutrophil Elastase Inhibition and Anti-Inflammatory Effects from Belamcanda chinensis” (Molecules, 2021)
